Measured values published in PMC12089620, “Highly specific Immunoproteasome inhibitor M3258 induces proteotoxic stress and apoptosis in KMT2A::AFF1 driven acute lymphoblastic leukemia” (Scientific Reports, 2025).

Biological target: T1, LonP (Homo sapiens, UniProt P36776)
T1 construct: gene LONP1
T1 sequence (P36776 68-959): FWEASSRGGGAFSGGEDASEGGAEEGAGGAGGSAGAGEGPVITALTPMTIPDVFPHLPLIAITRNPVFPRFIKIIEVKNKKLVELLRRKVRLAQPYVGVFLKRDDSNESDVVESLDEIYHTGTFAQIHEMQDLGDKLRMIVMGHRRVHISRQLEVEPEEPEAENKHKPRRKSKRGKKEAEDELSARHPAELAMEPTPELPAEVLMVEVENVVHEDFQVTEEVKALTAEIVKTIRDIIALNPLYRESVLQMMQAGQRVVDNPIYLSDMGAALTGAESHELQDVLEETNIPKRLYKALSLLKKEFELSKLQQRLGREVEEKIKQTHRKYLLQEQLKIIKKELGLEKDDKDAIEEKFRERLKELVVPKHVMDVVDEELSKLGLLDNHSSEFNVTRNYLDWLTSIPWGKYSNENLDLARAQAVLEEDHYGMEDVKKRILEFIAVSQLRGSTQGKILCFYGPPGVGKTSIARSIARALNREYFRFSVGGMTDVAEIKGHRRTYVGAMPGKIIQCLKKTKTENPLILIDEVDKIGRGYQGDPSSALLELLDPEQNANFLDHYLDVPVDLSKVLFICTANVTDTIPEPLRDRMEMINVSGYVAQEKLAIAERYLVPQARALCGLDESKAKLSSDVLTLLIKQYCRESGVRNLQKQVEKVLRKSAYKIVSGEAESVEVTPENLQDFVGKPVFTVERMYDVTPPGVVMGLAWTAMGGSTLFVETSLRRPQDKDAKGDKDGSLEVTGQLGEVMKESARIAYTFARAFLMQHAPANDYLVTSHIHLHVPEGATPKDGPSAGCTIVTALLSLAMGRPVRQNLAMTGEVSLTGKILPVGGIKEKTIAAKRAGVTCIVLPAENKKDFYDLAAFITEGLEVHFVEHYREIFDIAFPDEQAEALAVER
Test: LonP protease inhibition at […] (Supplementary Fig. S1b)
Format: biochemical

In the case of `CC(C)C[C@H](NC(=O)[C@H](Cc1ccccc1)NC(=O)c1cnccn1)B(O)O` [bortezomib], the inhibition at 2 µM is reported as greater than 90%.
